The text below walks through data of patent US6863647B2, “2-Ureido-thiazole derivatives, process for their preparation, and their use as antitumor agents” (Pharmacia & Upjohn S.p.A., priority 1998, dated 2005).

The test addresses cdk2/cyclin A complex (Homo sapiens, UniProt P24941). Kind of test: inhibition assay of cdk2/Cyclin A activity (MultiScreen-PH phosphocellulose filter, 33P-labelled histone H1). It is filed as biochemical. The settings on record: histone H1 substrate, 25 μM ATP; inhibitor 0.0045 to 10 μM; read-out: inhibiting activity towards the cdk2/cyclin A complex (IC50). Here is the method:
The inhibiting activity of putative cdk/cyclin inhibitors and the potency of selected compounds was determined through a method of assay based on the use of the MultiScreen-PH 96 well plate (Millipore), in which a phosphocellulose filter paper was placed at each well bottom allowing binding of positive charged substrate after a washing/filtration step.
When a radioactivity labelled phosphate moiety was transferred by the ser/threo kinase to the filter-bound histone, light emitted was measured in a scintillation counter.
The inhibition assay of cdk2/Cyclin A activity was performed according to the following protocol: • Kinase reaction: 1.5 μM histone H1 substrate, 25 μM ATP (0.5 μCi P^33γ-ATF), 30 ng Cyclin A/cdk2 complex, 10 μM inhibitor in a final volume of 100 μl buffer (TRIS HCl 10 mM pH 7.5, MgCl2 10 mM, 7.5 mM DTT) were added to each well of a 96 U bottom well plate. […] Plates were then washed 3 times with 150 μl/well PBS Ca^++/Mg^++ free and filtered by MultiScreen filtration system. • Detection: filters were allowed to dry at 37° C., then 100 μl/well scintillant were added and ^33P labelled histone H1 was detected by radioactivity counting in the Top-Count instrument. • Results: data were analysed and expressed as % inhibition referred to total activity of enzyme (=100%). […]

`Cc1cc(C)cc(NC(=O)Nc2ncc(C(C)C)s2)c1` [N-(5-isopropyl-1,3-thiazol-2-yl)-N′-(3,5-dimethylphenyl)urea]: the IC50 came out at 560 nM.
